Article PMC7094215, “Synthesis and Evaluation of Antileishmanial and Cytotoxic Activity of Benzothiopyrane Derivatives” (Molecules, 2020)

How the values were obtained:
[1] = system: intracellular amastigotes of L. panamensis (MHOM/CO/87/UA140-EGFP strain); assay: In vitro antileishmanial activity on intracellular amastigotes (GFP, flow cytometry); format: cell-based, Leishmania (V) panamensis; details: for SI (Selectivity Index = LC50/EC50): LC50 U-937 / EC50 L. panamensis amastigotes; for EC50: intracellular amastigotes in U-937 cells, 72 h exposure, mean ± SD, Probit
Procedure: Antileishmanial activity of compounds was determined according to the ability of the compound to reduce the infection by L. panamensis parasites. For this, the antileishmanial activity was tested on intracellular amastigotes of L. panamensis transfected with the green fluorescent protein gene (MHOM/CO/87/UA140-EGFP strain). Briefly, U-937 human cells at a density of 3 × 10^5 cells/mL in RPMI 1640 and 0.1 μg/mL of PMA (phorbol-12-myristate-13-acetate) were dispensed on 24-wells microplate and then infected with stationary phase growing L. panamensis promastigotes in 15:1 parasites per cell ratio. Plates were incubated at 34 °C and 5% CO2 for 3 h, and then cells were washed twice with phosphate buffer solution (PBS) to eliminate not internalized parasites. Fresh RPMI-1640 was added into each well (1 mL), and plates were incubated again. After 24 h of infection, the RPMI-1640 medium was replaced by fresh culture medium containing each compound at four serial dilutions (50, 12.5, 3.125 and 0.78 μg/mL) and plates were then incubated at 37 °C and 5% CO2 during 72 h, then, cells were removed from the bottom plate with 100 µL of EDTA/trypsin (250 mg) solution. The cells were centrifuged at 1100 rpm during 10 min at 4 °C, the supernatant was discarded, and cells were washed with 1 mL of cold PBS and centrifuged at 1100 rpm for 10 min at 4 °C. Cells were washed two times employing PBS, as previously, and after the last wash, the supernatant was discarded, and cells were suspended in 500 μL of PBS.
Cells were analyzed by flow cytometry employing a flow cytometer (FC 500MPL, Cytomics, Beckman Coulter. Pasadena, CA, USA) reading at 488 nm (exciting) and 525 nm (emitting) over an argon laser and counting 10,000 events. Infected cells were determined according to the events for green fluorescence (parasites). All determinations for each compound and standard drug were carried out by triplicate, in two experiments. Infected cells exposed to control drug (amphotericin B) were used as the control for antileishmanial activity (positive control), while infected cells incubated in the absence of any compound or drug were used as another control for infection (negative control). Nonspecific fluorescence was corrected by subtracting the fluorescence of unstained cells. Determinations were done by triplicate in at least two independent experiments.
The antileishmanial activity was determined according to the reduction of the percentage of fluorescent parasites determined according to the median fluorescence intensity (MFI) obtained for each experimental condition by cytometry. The parasite values for each concentration of compound were calculated by Equation (3), where the % of parasites in control well, corresponds to 100% of parasites:(3) % Parasites=(MFI exposed parasites/MFI unexposed parasites)×100
Then, the inhibition percentage was calculated with Equation (4):(4) % Inhibitors of Parasites=100−(% Parasites)
Results of antileishmanial activities were expressed as the median effective concentrations (EC50) measured by Probit method.

[2] = Cytotoxic activity, MTT method; format: cell-based; details: human, LC50
Procedure: Cytotoxicity of the compounds was evaluated on human monocytes (U-937 ATCC CRL-1593.2) in an exponential growth phase and adjusted at 1 × 10^5 cells/mL in RPMI-1640 enriched with 10% fetal bovine serum (FBS). One hundred microliters of cell suspension were dispensed in each well of a 96-wells microplate, and then 100 μL of 200-50-12.5 and 3.125 μg/mL concentration of each compound or standard drug (amphotericin B) were added dissolved in PBS with 0.5% DMSO. Cell exposed to compounds or standard drugs were incubated 72 h at 37 °C and 5% of CO2. Cytotoxic activity of each compound was determined according to the effect on the cell viability by the MTT microenzymatic method in which 3-(4,5-dimethylthiazol-2-yl)-2,5-diphenyltetrazolium bromide is reduced to a purple formazan product by mitochondrial enzyme succinate dehydrogenase. Thus, 10 μL/well of MTT solution (5 mg/mL) was added to each well of exposed and unexposed cells, and plates were incubated at 37 °C, 5% CO2 during 3 h. The reaction was stopped by adding 100 μL/well of isopropanol with 50% and 10% of SDS (sodium dodecyl sulfate). The concentration of formazan was determined spectrophotometrically at 570 nm (Varioskan, Thermo, Waltham, MA, USA) and intensity of color (absorbance) was registered as O.D. Cells exposed to control drug (amphotericin B) were used as control for toxicity (positive control) while cell incubated in the absence of any compound or drug were used as control for viability (negative control). Non-specific absorbance was corrected by subtracting absorbance (O.D) of the blank. Determinations were done by triplicate in at least two independent experiments.
Cytotoxicity was determined according to viability and mortality percentages obtained for each experimental condition (synthesized compounds, amphotericin B, and culture medium). Results were expressed as the mean lethal concentrations (LC50), the concentration necessary to kill 50% of cells, calculated by the parametric method of linear regression that permits doses-response analysis (Probit analysis).
Initially, viability percentages were calculated by Equation (1), where the O.D of control well, corresponds to 100% of viability:(1) % Viability=(O.D. exposed cells/O.D. unexposed cells)×100
Then, the percentage of cell growth inhibition was calculated using Equation (2):(2) % Inhibition =100−(% Viability)
The toxicity was defined according to LC50 values, using the follow scale: Toxic; LC50 < 100 μM; moderately toxic; LC50 > 100 μM and < 200 μM and potentially nontoxic; LC50 > 200 μM.

[3] = Leishmania panamensis, U-937, 72 h

SMILES | SI (Selectivity Index = LC50/EC50) [1] | EC50 [1, 3] | CC50 at 72 h [2] | EC50 [1] | antileishmanial activity (in words) ([1]; intracellular amastigotes of L. panamensis)
O=C1CC(C(=O)O)Sc2ccccc21 (racemic) [Compound 20a, 4-Oxothiochromane-2-carboxylic acid] | 0.3 | 414 ± 58.5 µM | 133 ± 67.7 µM | – | –
O=C1CC(C(=O)O)Sc2ccccc21 (stereo not drawn) [20a (+), 4-oxo-thiochroman-2-carboxylic acid] | > 0.1 | – | > 48.1 µM | 505 ± 133 µM | –
C[C@@H]1[C@H](O)[C@@H](C)/C=C/C=C/C=C/C=C/C=C/C=C/C=C/[C@H](O[C@@H]2O[C@H](C)[C@@H](O)[C@H](N)[C@@H]2O)C[C@@H]2O[C@](O)(C[C@@H](O)C[C@@H](O)[C@H](O)CC[C@@H](O)C[C@@H](O)CC(=O)O[C@H]1C)C[C@H](O)[C@H]2C(=O)O [Amphotericin B, reference compound] | – | 0.05 µM | 56.8 µM | – | –
N#CC1=Cc2ccccc2SC1 [Compound 8a, 2H-Thiochromene-3-carbonitrile] | 0.7 | – | 4 ± 0.6 µM | – | –
COC(=O)C1=Cc2ccccc2SC1 [Compound 8b, Methyl 2H-thiochromene-3-carboxylate] | 2.8 | 126 ± 15.5 µM | 352 ± 47.5 µM | – | practically inactive
CC(=O)C1=Cc2ccccc2SC1c1ccccc1 (stereo not drawn) [Compound 8c, 1-(2-Phenyl-2H-thiochromen-3-yl)ethan-1-one] | < 2.3 | > 2.6 µM | 6 ± 0.4 µM | – | –
CCCCCC1Sc2ccccc2C=C1C(C)=O (stereo not drawn) [Compound 8d, 1-(2-Pentyl-2H-thiochromen-3-yl)ethan-1-one] | 3.1 | – | 25.7 ± 4.6 µM | – | –
O=C(C1=Cc2ccccc2SC1c1ccccc1)C(F)(F)F (stereo not drawn) [Compound 8e] | 0.7 | 29.6 ± 6.2 µM | 21.2 ± 3.4 µM | – | –
N#CC1CSc2ccccc2C1=O (stereo not drawn) [Compound 9a, 4-Oxo-thiochromane-3-carbonitrile] | 7.2 | 108 ± 34.3 µM | 770 ± 49.7 µM | – | –
COC(=O)C1CSc2ccccc2C1=O (stereo not drawn) [Compound 9b + 10b, Methyl 4-oxo-thiochromane-3-carboxylate] | 3.6 | 134 ± 27 µM | 485 ± 45.4 µM | – | –
CCCCCC1Sc2ccccc2C(O)=C1C(C)=O (stereo not drawn) [Compound 10d, 1-(4-Hydroxy-2-pentyl-2H-thiochromen-3-yl)ethan-1-one] | 4.1 | < 20 µM | 51 ± 9 µM | 12.5 ± 3.3 µM | –
O=CC1=Cc2ccccc2SC1c1ccccc1 (stereo not drawn) [Compound 13a, 2-Phenyl-2H-thiochromene-3-carbaldehyde] | < 2.3 | > 23.8 µM | 54.7 ± 3.2 µM | – | –
O=CC1=Cc2ccccc2SC1c1ccc(F)cc1 (stereo not drawn) [Compound 13b, 2-(4-Fluorophenyl)-2H-thiochromene-3-carbaldehyde] | 0.3 | 29.7 ± 4.4 µM | 9.6 ± 0.4 µM | – | –
O=CC1=Cc2ccccc2SC1c1ccc(Cl)cc1 (stereo not drawn) [Compound 13c, 2-(4-Chlorophenyl)-2H-thiochromene-3-carbaldehyde] | 4.3 | 37 ± 5.6 µM | 161 ± 27.9 µM | – | –
O=CC1=Cc2ccccc2SC1c1ccccc1[N+](=O)[O-] (stereo not drawn) [Compound 13d, 2-(2-Nitrophenyl)-2H-thiochromene-3-carbaldehyde] | 2.6 | – | 23.9 ± 2.4 µM | – | –
O=C(C1=Cc2ccccc2SC1c1ccccc1)c1ccccc1 (stereo not drawn) [Compound 15a, Phenyl(2-phenyl-2H-thiochromen-3-yl)methanone] | – | 43.9 ± 11.6 µM | > 609 µM | – | –
O=C(C1=Cc2ccccc2SC1c1ccc(C(F)(F)F)cc1)c1ccc(Cl)cc1 (stereo not drawn) [Compound 15b, (4-Chlorophenyl)(2-(4-(trifluoromethyl)phenyl)-2H-thiochromen-3-yl)methanone] | 2.6 | 37.9 ± 2.8 µM | 97.2 ± 14.2 µM | – | –
O=C(C1=Cc2ccccc2SC1c1ccc([N+](=O)[O-])cc1)c1ccc(Cl)cc1 (stereo not drawn) [Compound 15c, (4-Chlorophenyl)(2-(4-nitrophenyl)-2H-thiochromen-3-yl)methanone] | 4.0 | 38.1 ± 11.3 µM | 151 ± 18.1 µM | – | –
O=C1CC(C(=O)O)Sc2ccc(F)cc21 (stereo not drawn) [Compound 20b, 6-Fluoro-4-oxo-thiochromane-2-carboxylic acid] | 0.1 | 3520 ± 3010 µM | 210 ± 78.7 µM | – | –
COc1ccc2c(c1)C(=O)CC(C(=O)O)S2 (stereo not drawn) [Compound 20c, 6-Methoxy-4-oxo-thiochromane-2-carboxylic acid] | 0.2 | 494 ± 324 µM | 76.3 ± 8.6 µM | – | –
COc1ccc2c(c1)SC(C(=O)O)CC2=O (stereo not drawn) [Compound 20d, 7-Methoxy-4-oxo-thiochromane-2-carboxylic acid] | 0.3 | 277 ± 101 µM | 90.4 ± 16.4 µM | – | –
CCOC(=O)C1CC(=O)c2ccccc2S1 (stereo not drawn) [Compound 22a, Ethyl 4-oxo-thiochromane-2-carboxylate] | < 3.1 | > 68.5 µM | 211.1 ± 0.7 µM | – | –
CCCCOC(=O)C1CC(=O)c2ccccc2S1 (stereo not drawn) [Compound 22b, Butyl 4-oxo-thiochromane-2-carboxylate] | < 1.2 | > 189 µM | 231 ± 44.5 µM | – | –
CCCCCCOC(=O)C1CC(=O)c2ccccc2S1 (stereo not drawn) [Compound 22c, Hexyl 4-oxo-thiochromane-2-carboxylate] | < 2.1 | > 103 µM | 213 ± 47.9 µM | – | –
CCCCCCCCCCOC(=O)C1CC(=O)c2ccccc2S1 (stereo not drawn) [Compound 22d, Decyl 4-oxo-thiochromane-2-carboxylate] | < 1.0 | > 144 µM | 140 ± 20.7 µM | – | –
CCCCCCNC(=O)C1CC(=O)c2ccccc2S1 (stereo not drawn) [Compound 24a, N-hexyl-4-oxo-thiochromane-2-carboxamide] | 0.7 | 216 ± 2.5 µM | 157 ± 9.7 µM | – | –
CCCCCCCCCCCCNC(=O)C1CC(=O)c2ccccc2S1 (stereo not drawn) [Compound 24b, N-dodecyl-4-oxo-thiochromane-2-carboxamide] | < 1.8 | > 80 µM | 148 ± 45.4 µM | – | –
